Target: T1, FXR (Homo sapiens, UniProt Q96RI1)
T1 construct: 5 μL of 20 nM FXR-LBD Complete Coregulator buffer G; purchased ThermoFisher PV4833
T1 sequence (Q96RI1 262-486 limits assumed): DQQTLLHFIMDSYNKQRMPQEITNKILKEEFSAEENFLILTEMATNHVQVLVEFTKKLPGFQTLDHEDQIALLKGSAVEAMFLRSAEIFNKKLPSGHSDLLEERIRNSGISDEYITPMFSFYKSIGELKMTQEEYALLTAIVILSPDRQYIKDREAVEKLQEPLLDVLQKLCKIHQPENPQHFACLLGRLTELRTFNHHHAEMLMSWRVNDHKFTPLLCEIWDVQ
Assay: FXR antagonist screening by TR-FRET (LanthaScreen TR-FRET FXR co-activation assay kit)
Format: biochemical
Conditions: Table 1.2, FXR antagonistic activity; TR-FRET with CDCA; geometric means of at least two independent runs
Procedure, shortened: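 FXR-LBD (20 nM working solution) mixed with compound, CDCA (200 μM working solution) as agonist, Fluorescein-SRC2-2 and Tb-anti-GST antibody in Coregulator buffer G; 10 h at room temperature. Coactivator recruitment read by TR-FRET, triplicate wells.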

SMILES | IC50
CCOC(=O)c1oc2ccc(S(=O)(=O)N(CCc3ccccc3)c3ccccc3N3CCN(C(=O)c4ccc(C)cc4)CC3)cc2c1C [Example M10-106, ethyl 3-methyl-5-(N-(2-(4-(4-methylbenzoyl)piperazin-1-yl)phenyl)-N-phenethylsulfamoyl)benzofuran-2-carboxylate] | 50 to 100 µM
CCOC(=O)c1oc2ccc(S(=O)(=O)N(CCc3ccccc3)c3ccccc3N3CCN(C(=O)c4ccccc4C)CC3)cc2c1C [Example M10-107, Ethyl 3-methyl-5-(N-(2-(4-(2-methylbenzoyl)piperazin-1-yl)phenyl)-N-phenethylsulfamoyl)benzofuran-2-carboxylate] | 50 to 100 µM
CCOC(=O)c1oc2ccc(S(=O)(=O)N(CCc3ccccc3)c3ccccc3N3CCN(C(=O)c4cccc(C)c4)CC3)cc2c1C [Example M10-108, ethyl 3-methyl-5-(N-(2-(4-(3-methylbenzoyl)piperazin-1-yl)phenyl)-N-phenethylsulfamoyl)benzofuran-2-carboxylate] | 50 to 100 µM
CCOC(=O)c1oc2ccc(S(=O)(=O)N(CCc3ccccc3)c3ccccc3N3CCN(C(=O)c4ccc(NC(C)=O)cc4)CC3)cc2c1C [Example M10-109, Ethyl 5-(N-(2-(4-(4-Acetylaminobenzoyl)piperazin-1-yl)phenyl)-N-phenethylsulfamoyl)-3-methyl benzofuran-2-carboxylate] | 50 to 100 µM
CCOC(=O)c1oc2ccc(S(=O)(=O)N(CCc3ccccc3)c3ccccc3N3CCN(C(=O)c4ccc(C(F)(F)F)cc4)CC3)cc2c1C [Example M10-110] | 50 to 100 µM
CCOC(=O)c1oc2ccc(S(=O)(=O)N(CCc3ccccc3)c3ccccc3N3CCN(C(=O)c4ccc(C#N)cc4)CC3)cc2c1C [Example M10-111] | 50 to 100 µM
CCOC(=O)c1oc2ccc(S(=O)(=O)N(CCc3ccccc3)c3ccccc3N3CCN(C(=O)c4ccc(F)cc4)CC3)cc2c1C [Example M10-112, Ethyl 5-(N-(2-(4-(4-fluorobenzoyl)piperazin-1-yl)phenyl)-N-phenethylsulfamoyl)-3-methylbenzofuran-2-carboxylate] | 50 to 100 µM
CCOC(=O)c1oc2ccc(S(=O)(=O)N(CCc3ccccc3)c3ccccc3N3CCN(C(=O)c4ccc(NC(=O)OC(C)(C)C)cc4)CC3)cc2c1C [Example M10-113, Ethyl-(N-(2-(4-(4-((tert-butoxycarbonyl)amino)benzoyl)piperazin-1-yl)phenyl)-N-phenethylsulfamoyl)-3-methylbenzofuran-2-carboxylate] | 50 to 100 µM
CCOC(=O)c1oc2ccc(S(=O)(=O)N(CCc3ccccc3)c3ccccc3N3CCN(C(=O)c4ccc([N+](=O)[O-])cc4)CC3)cc2c1C [Example M10-114, Ethyl 3-methyl-5-(N-(2-(4-(4-nitrobenzoyl)piperazin-1-yl)phenyl)-N-phenethylsulfamoyl)benzofuran-2-carboxylate] | 50 to 100 µM
CCOC(=O)c1oc2ccc(S(=O)(=O)N(CCc3ccccc3)c3ccccc3N3CCN(C(=O)c4ccc(C(C)=O)cc4)CC3)cc2c1C [Example M10-115, Ethyl 5-(N-(2-(4-(4-acetylbenzoyl)piperazin-1-yl)phenyl)-N-phenethylsulfamoyl)-3-methylbenzofuran-2-carboxylate] | 50 to 100 µM
CCOC(=O)c1oc2ccc(S(=O)(=O)N(CCc3ccccc3)c3ccccc3N3CCN(C(=O)c4cccnc4)CC3)cc2c1C [Example M10-116, Ethyl 3-methyl-5-(N-(2-(4-nicotinoylpiperazin-1-yl)phenyl)-N-phenethylsulfamoyl)benzofuran-2-carboxylate] | 50 to 100 µM
CCOC(=O)c1oc2ccc(S(=O)(=O)N(CCc3ccccc3)c3ccccc3N3CCN(C(=O)c4ccccn4)CC3)cc2c1C [Example M10-117, ethyl 3-methyl-5-(N-phenethyl-N-(2-(4-pyridineformylpiperazin-1-yl)phenyl)sulfamoyl)benzofuran-2-carboxylate] | 50 to 100 µM
CCOC(=O)c1oc2ccc(S(=O)(=O)N(CCc3ccccc3)c3ccccc3N3CCN(C(=O)c4cccs4)CC3)cc2c1C [Example M10-118, Ethyl 3-methyl-5-(N-phenethyl-N-(2-(4-(thiophene-2-carbonyl)piperazin-1-yl)phenyl)sulfamoyl)benzofuran-2-carboxylate] | 50 to 100 µM
CCOC(=O)c1oc2ccc(S(=O)(=O)N(CCc3ccccc3)c3ccccc3N3CCN(C(=O)c4ccsc4)CC3)cc2c1C [Example M10-119, Ethyl 3-methyl-5-(N-phenethyl-N-(2-(4-(thiophene-3-carbonyl)piperazin-1-yl)phenyl)sulfamoyl)benzofuran-2-carboxylate] | 50 to 100 µM
C/C=C/C(=O)N1CCN(c2ccccc2N(CCc2ccccc2)S(=O)(=O)c2ccc3oc(C(=O)OCC)c(C)c3c2)CC1 [Example M10-120, (E)ethyl-5-(N-(2-(4-(but-2-enoyl)piperazin-1-yl)phenyl)-N-phenethylsulfamoyl)-3-methylbenzofuran-2-carboxylate] | 50 to 100 µM
CCOC(=O)c1oc2ccc(S(=O)(=O)N(CCc3ccccc3)c3ccccc3N3CCN(C(=O)c4ccco4)CC3)cc2c1C [Example M10-121, Ethyl 5-(N-(2-(4-(furan-2-carbonyl)piperazin-1-yl)phenyl)-N-phenethylsulfamoyl)-3-methylbenzofuran-2-carboxylate] | 50 to 100 µM
CCOC(=O)c1oc2ccc(S(=O)(=O)N(CCc3ccccc3)c3ccccc3N3CCN(C(=O)C4CCCC4)CC3)cc2c1C [Example M10-122, Ethyl 5-(N-(2-(4-(cyclopentanecarbonyl)piperazin-1-yl)phenyl)-N-phenethylsulfamoyl)-3-methylbenzofuran-2-carboxylate] | 50 to 100 µM
CCOC(=O)c1oc2ccc(S(=O)(=O)N(CCc3ccccc3)c3ccccc3N3CCN(C(=O)c4ccc(Br)s4)CC3)cc2c1C [Example M10-123, Ethyl 5-(N-(2-(4-(5-bromothiophene-2-carbonyl)piperazin-1-yl)phenyl)-N-phenethylsulfamoyl)-3-methylbenzofuran-2-carboxylate] | 50 to 100 µM
CCOC(=O)c1oc2ccc(S(=O)(=O)N(CCc3ccccc3)c3ccccc3N3CCN(C(=O)c4ccc[nH]4)CC3)cc2c1C [Example M10-124, Ethyl 5-(N-(2-(4-(1H-pyrrole-2-carbonyl)piperazin-1-yl)phenyl)-N-phenethylsulfamoyl)-3-methylbenzofuran-2-carboxylate] | 50 to 100 µM
CCOC(=O)c1oc2ccc(S(=O)(=O)N(CCc3ccccc3)c3ccccc3N3CCN(C(=O)c4sccc4Br)CC3)cc2c1C [Example M10-125, ethyl 5-(N-(2-(4-(3-bromothiophene-2-carbonyl)piperazin-1-yl)phenyl)-N-phenethylsulfamoyl)-3-methylbenzofuran-2-carboxylate] | 50 to 100 µM
CCOC(=O)c1oc2ccc(S(=O)(=O)N(CCc3ccccc3)c3ccccc3N3CCN(C(=O)c4sccc4Cl)CC3)cc2c1C [Example M10-126, Ethyl 5-(N-(2-(4-(3-chlorothiophene-2-carbonyl)piperazin-1-yl)phenyl)-N-phenethylsulfamoyl)-3-methylbenzofuran-2-carboxylate] | 50 to 100 µM
CCOC(=O)c1oc2ccc(S(=O)(=O)N(CCc3ccccc3)c3ccccc3N3CCN(C(=O)c4cc(Br)cs4)CC3)cc2c1C [Example M10-127, Ethyl 5-(N-(2-(4-(4-bromothiophene-2-carbonyl)piperazin-1-yl)phenyl)-N-phenethylsulfamoyl)-3-methylbenzofuran-2-carboxylate] | 50 to 100 µM
CCOC(=O)c1oc2ccc(S(=O)(=O)N(CCc3ccccc3)c3ccccc3N3CCN(C(=O)c4ccc(Cl)s4)CC3)cc2c1C [Example M10-128, Ethyl 5-(N-(2-(4-(5-chlorothiophene-2-carbonyl)piperazin-1-yl)phenyl)-N-phenethylsulfamoyl)-3-methylbenzofuran-2-carboxylate] | 50 to 100 µM
CCOC(=O)c1oc2ccc(S(=O)(=O)N(CCc3ccccc3)c3ccccc3N3CCN(C(=O)c4cncs4)CC3)cc2c1C [Example M10-129, Ethyl 3-methyl-5-(N-phenethyl-N-(2-(4-(thiazole-5-carbonyl)piperazin-1-yl)phenyl)sulfamoyl)benzofuran-2-carboxylate] | 50 to 100 µM
CCOC(=O)c1oc2ccc(S(=O)(=O)N(CCc3ccccc3)c3ccccc3N3CCN(C(=O)c4cc[nH]n4)CC3)cc2c1C [Example M10-130, Ethyl 5-(N-(2-(4-(1H-pyrazole-3-carbonyl)piperazin-1-yl)phenyl)-N-phenethylsulfamoyl)-3-methylbenzofuran-2-carboxylate] | 50 to 100 µM
CCOC(=O)c1oc2ccc(S(=O)(=O)N(CCc3ccccc3)c3ccccc3N3CCN(C(=O)c4cnco4)CC3)cc2c1C [Example M10-131, Ethyl 3-methyl-5-(N-(2-(4-(oxazole-5-carbonyl)piperazin-1-yl)phenyl)-N-phenethylsulfamoyl)benzofuran-2-carboxylate] | 50 to 100 µM
CCOC(=O)c1oc2ccc(S(=O)(=O)N(CCc3ccccc3)c3ccccc3N3CCN(C(=O)c4ccc(C)c(C)c4)CC3)cc2c1C [Example M10-132, Ethyl 5-(N-(2-(4-(3,4-Dimethylbenzoyl)piperazin-1-yl)phenyl)-N-phenethylsulfamoyl) 3-methylbenzofuran-2-carboxylate] | 50 to 100 µM
CCOC(=O)c1oc2ccc(S(=O)(=O)N(CCc3ccccc3)c3ccccc3N3CCN(C(=O)c4c(OC)cccc4OC)CC3)cc2c1C [Example M10-133, Ethyl 5-(N-(2-(4-(2,6-Dimethoxybenzoyl)piperazin-1-yl)phenyl)-N-phenethylsulfamoyl)3-methylbenzofuran-2-carboxylate] | 50 to 100 µM

From US20240239775A1, “FXR REGULATOR, PREPARATION METHOD THEREFOR, PHARMACEUTICAL COMPOSITION THEREOF AND USE THEREOF” (QINGDAO RUIJI MEDICAL TECHNOLOGY CO., LTD., priority 2021, published 2024)
